Measured values reported in patent US9718828B2 (MERCK SHARP & DOHME CORP., priority 2011, dated 2017).
pEC50: −log10 of the molar value. Where a name gives a salt, the structure may show the parent alone.

What follows are compounds tested against Btk enzyme (His-Btk) (Homo sapiens (Human), UniProt Q06187) (assay: Btk enzyme activity, IMAP fluorescence polarization assay (Assay Method A)). Settings: not given.
Chain of Btk enzyme (His-Btk) (Q06187 whole entry): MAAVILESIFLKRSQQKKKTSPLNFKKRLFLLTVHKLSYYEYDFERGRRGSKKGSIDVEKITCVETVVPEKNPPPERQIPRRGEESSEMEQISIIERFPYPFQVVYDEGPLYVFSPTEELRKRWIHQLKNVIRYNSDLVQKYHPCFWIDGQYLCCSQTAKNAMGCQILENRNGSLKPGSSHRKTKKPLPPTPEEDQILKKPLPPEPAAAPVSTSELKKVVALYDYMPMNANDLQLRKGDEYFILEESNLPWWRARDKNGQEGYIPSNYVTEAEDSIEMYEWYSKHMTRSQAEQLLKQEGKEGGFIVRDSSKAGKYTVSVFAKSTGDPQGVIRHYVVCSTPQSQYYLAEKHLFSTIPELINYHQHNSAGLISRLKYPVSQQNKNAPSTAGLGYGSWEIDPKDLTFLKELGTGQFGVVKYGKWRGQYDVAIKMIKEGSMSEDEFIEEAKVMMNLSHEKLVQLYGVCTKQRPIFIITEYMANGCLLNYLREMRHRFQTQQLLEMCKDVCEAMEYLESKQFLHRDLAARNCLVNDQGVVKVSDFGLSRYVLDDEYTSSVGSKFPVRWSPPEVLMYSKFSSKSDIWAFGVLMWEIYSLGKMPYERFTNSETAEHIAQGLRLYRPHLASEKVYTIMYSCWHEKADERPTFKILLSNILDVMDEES

Structure (SMILES) | pEC50
COCCC(=O)N1CCC[C@@H](c2nc(-c3ccc(C(=O)Nc4ccccn4)c(F)c3)c3c(N)nccn23)C1 [Example 282, (R)-4-(8-amino-3-(1-(3-methoxypropanoyl)piperidin-3-yl)imidazo[1,5-a]pyrazin-1-yl)-2-fluoro-N-(pyridin-2-yl)benzamide, TFA salt] | > 8.00
COCCC(=O)N1CCC[C@@H](c2nc(-c3ccc(C(=O)Nc4ccccn4)cc3C)c3c(N)nccn23)C1 [Example 285, 4-(8-amino-3-((R)-1-(3-methoxypropanoyl)piperidin-3-yl)imidazo[1,5-a]pyrazin-1-yl)-3-methyl-N-(pyridin-2-yl)benzamide, TFA salt] | 7.00 to 8.00
COCCC(=O)N1CCC[C@@H](c2nc(-c3ccc(C(=O)Nc4ccccn4)c(C)c3)c3c(N)nccn23)C1 [Example 286, (R)-4-(8-amino-3-(1-(3-methoxypropanoyl)piperidin-3-yl)imidazo[1,5-a]pyrazin-1-yl)-2-methyl-N-(pyridin-2-yl)benzamide, TFA salt] | 7.00 to 8.00
COCCC(=O)N1CCC[C@@H](c2nc(-c3ccc(C(=O)Nc4ccccn4)nc3)c3c(N)nccn23)C1 [Example 287, (R)-5-(8-amino-3-(1-(3-methoxypropanoyl)piperidin-3-yl)imidazo[1,5-a]pyrazin-1-yl)-N-(pyridin-2-yl)picolinamide, TFA salt] | 7.00 to 8.00
COCCC(=O)N1CCC[C@@H](c2nc(-c3ccc(C(=O)Nc4ccccn4)cn3)c3c(N)nccn23)C1 [Example 288, (R)-6-(8-amino-3-(1-(3-methoxypropanoyl)piperidin-3-yl)imidazo[1,5-a]pyrazin-1-yl)-N-(pyridin-2-yl) nicotinamide] | 6.00 to 7.00
CC1(C(=O)N2CCC[C@@H](c3nc(-c4ccc(C(=O)Nc5cnccn5)cc4)c4c(N)nccn34)C2)COC1 [Example 290, (R)-4-(8-amino-3-(1-(3-methyloxetane-3-carbonyl)piperidin-3-yl)imidazo[1,5-a]pyrazin-1-yl)-N-(pyrazin-2-yl)benzamide] | 7.00 to 8.00
COCCCNC(=O)c1cnc(N)c2c(-c3ccc(C(=O)Nc4cc(C(F)(F)F)ccn4)cc3)nc(C)n12 [Example 291, 8-amino-N-(3-methoxypropyl)-3-methyl-1-(4-(4-(trifluoromethyl)pyridin-2-ylcarbamoyl)phenyl)imidazo[1,5-a]pyrazine-5-carboxamide] | 6.00 to 7.00

Further lines, results first:

pEC50 | Structure (SMILES)
6.00 to 7.00 | Cc1nc(-c2ccc(C(=O)Nc3cc(C(F)(F)F)ccn3)cc2)c2c(N)ncc(C(=O)NCc3ccccc3)n12 [Example 292, 8-amino-N-benzyl-3-methyl-1-(4-(4-(trifluoromethyl)pyridin-2-ylcarbamoyl)phenyl)imidazo[1,5-a]pyrazine-5-carboxamide]
≤ 6.00 | Cc1nc(-c2ccc(C(=O)Nc3cc(C(F)(F)F)ccn3)cc2)c2c(N)ncc(C(=O)N(C)C)n12 [Example 293, 8-amino-N,N,3-trimethyl-1-(4-(4-(trifluoromethyl)pyridin-2-ylcarbamoyl)phenyl)imidazo[1,5-a]pyrazine-5-carboxamide]
6.00 to 7.00 | CCCc1ccnc(NC(=O)c2ccc(-c3nc(C)n4c(C(=O)NCCCOC)cnc(N)c34)cc2)c1 [Example 294, 8-amino-N-(3-methoxypropyl)-3-methyl-1-(4-(4-propylpyridin-2-ylcarbamoyl)phenyl)imidazo[1,5-a]pyrazine-5-carboxamide]
6.00 to 7.00 | Cc1nc(-c2ccc(C(=O)Nc3cc(C(F)(F)F)ccn3)cc2)c2c(N)ncc(C(=O)NC3CCN(C)CC3)n12 [Example 295, 8-amino-3-methyl-N-(1-methylpiperidin-4-yl)-1-(4-(4-(trifluoromethyl)pyridin-2-ylcarbamoyl)phenyl)imidazo[1,5-a]pyrazine-5-carboxamide]
6.00 to 7.00 | Cc1nc(-c2ccc(C(=O)Nc3cc(C(F)(F)F)ccn3)cc2)c2c(N)ncc(C(=O)NCc3cccnc3)n12 [Example 296, 8-amino-3-methyl-N-(pyridin-3-ylmethyl)-1-(4-(4-(trifluoromethyl)pyridin-2-ylcarbamoyl)phenyl)imidazo[1,5-a]pyrazine-5-carboxamide]
6.00 to 7.00 | Cc1nc(-c2ccc(C(=O)Nc3cc(C(F)(F)F)ccn3)cc2)c2c(N)ncc(C(=O)NCc3cnco3)n12 [Example 297, 8-amino-3-methyl-N-(oxazol-5-ylmethyl)-1-(4-(4-(trifluoromethyl)pyridin-2-ylcarbamoyl)phenyl)imidazo[1,5-a]pyrazine-5-carboxamide]
> 8.00 | CCOC(=O)c1cnc(N)c2c(-c3ccc(C(=O)Nc4cc(C(F)(F)F)ccn4)cc3)nc([C@@H]3CCCN(C(=O)C4(C)COC4)C3)n12 [Example 299, (R)-ethyl 8-amino-3-(1-(3-methyloxetane-3-carbonyl)piperidin-3-yl)-1-(4-(4-(trifluoromethyl)pyridine-2-ylcarbamoyl)phenyl)imidazo[1,5-a]pyrazine-5-carboxylate]
7.00 to 8.00 | CC1(C(=O)N2CCC[C@@H](c3nc(-c4ccc(C(=O)Nc5cc(C(F)(F)F)ccn5)cc4)c4c(N)ncc(C5CC5)n34)C2)COC1 [Example 303, (R)-4-(8-amino-5-cyclopropyl-3-(1-(3-methyloxetane-3-carbonyl)piperidin-3-yl)imidazo[1,5-a]pyrazin-1-yl)-N-(4-(trifluoromethyl)pyridin-2-yl)benzamide]

Same assay, conditions: read-out: EC50 Btk activity values - Assay Method A

Structure (SMILES) | pEC50
Nc1ncc(Cl)n2c([C@@H]3CCCNC3)nc(-c3ccc(C(=O)Nc4cc(C(F)(F)F)ccn4)cc3)c12 [Example 307] | > 8.00

Same assay, conditions: read-out: EC50 Btk activity values - Assay Method A; IMAP-FP, 60 min pre-incubation, 5 μM ATP

Structure (SMILES) | pEC50
COCCC(=O)N1CCC[C@@H](c2nc(-c3ccc(C(=O)Nc4ccccn4)cc3C(F)(F)F)c3c(N)nccn23)C1 [Example 283, 4-(8-amino-3-((R)-1-(3-methoxypropanoyl)piperidin-3-yl)imidazo[1,5-a]pyrazin-1-yl)-N-(pyridin-2-yl)-3-(trifluoromethyl)benzamide, TFA salt] | ≤ 6.00

Same assay, conditions: read-out: EC50 Btk activity values - Assay Method A; IMAP-FP, 60 min pre-incubation, 5 μM ATP; class 100-1000 is given as ≧100 nM-<1 μM

Structure (SMILES) | pEC50
CCOCCC(=O)N1CCC[C@@H](n2nc(-c3ccc(C(=O)Nc4cc(C(F)(F)F)ccn4)cc3)c3c(N)ncnc32)C1 [Example 281, (R)-4-(4-amino-1-(1-(3-ethoxypropanoyl)piperidin-3-yl)-1H-pyrazolo[3,4-d]pyrimidin-3-yl)-N-(4-(trifluoromethyl)pyridin-2-yl)benzamide] | > 8.00
COCCC(=O)N1CCC[C@@H](c2nc(-c3ccc(C(=O)Nc4ccccn4)cc3F)c3c(N)nccn23)C1 [Example 284, 4-(8-amino-3-((R)-1-(3-methoxypropanoyl)piperidin-3-yl)imidazo[1,5-a]pyrazin-1-yl)-3-fluoro-N-(pyridin-2-yl)benzamide, TFA salt] | > 8.00
Nc1nccn2c([C@@H]3CCCN(C(=O)[C@H](O)CO)C3)nc(-c3ccc(C(=O)Nc4cc(C5CC5)ccn4)cc3)c12 [Example 289, 4-(8-amino-3-((R)-1-((R)-2,3-dihydroxypropanoyl)piperidin-3-yl)imidazo[1,5-a]pyrazin-1-yl)-N-(4-cyclopropylpyridin-2-yl)benzamide] | > 8.00

Next, values leading:

pEC50 | Structure (SMILES)
> 8.00 | CCCc1ccnc(NC(=O)c2ccc(-c3nc(C4CCOCC4)n4c(Cl)cnc(N)c34)cc2)c1 [Example 298, 4-(8-amino-5-chloro-3-(tetrahydro-2H-pyran-4-yl)imidazo[1,5-a]pyrazin-1-yl)-N-(4-propylpyridin-2-yl)benzamide]
> 8.00 | CC1(C(=O)N2CCC[C@@H](c3nc(-c4ccc(C(=O)Nc5cc(C(F)(F)F)ccn5)cc4)c4c(N)ncc(C(=O)O)n34)C2)COC1 [Example 300, (R)-8-amino-3-(1-(3-methyloxetane-3-carbonyl)piperidin-3-yl)-1-(4-(4-(trifluoromethyl)pyridin-2-ylcarbamoyl)phenyl)imidazo[1,5-a]pyrazine-5-carboxylic acid]
> 8.00 | CC1(C(=O)N2CCC[C@@H](c3nc(-c4ccc(C(=O)Nc5cc(C(F)(F)F)ccn5)cc4)c4c(N)ncc(Cl)n34)C2)COC1 [Example 301, (R)-4-(8-amino-5-chloro-3-(1-(3-methyloxetane-3-carbonyl)piperidin-3-yl)imidazo[1,5-a]pyrazin-1-yl)-N-(4-(trifluoromethyl)pyridin-2-yl)benzamide]
> 8.00 | C=Cc1cnc(N)c2c(-c3ccc(C(=O)Nc4cc(C(F)(F)F)ccn4)cc3)nc([C@@H]3CCCN(C(=O)C4(C)COC4)C3)n12 [Example 302, (R)-4-(8-amino-3-(1-(3-methyloxetane-3-carbonyl)piperidin-3-yl)-5-vinylimidazo[1,5-a]pyrazin-1-yl)-N-(4-(trifluoromethyl)pyridin-2-yl)benzamide]
> 8.00 | Cc1cnc(N)c2c(-c3ccc(C(=O)Nc4cc(C(F)(F)F)ccn4)cc3)nc([C@@H]3CCCN(C(=O)C4(C)COC4)C3)n12 [Example 306, (R)-4-(8-amino-5-methyl-3-(1-(3-methyloxetane-3-carbonyl)piperidin-3-yl)imidazo[1,5-a]pyrazin-1-yl)-N-(4-(trifluoromethyl)pyridin-2-yl)benzamide]
> 8.00 | CCc1cnc(N)c2c(-c3ccc(C(=O)Nc4cc(C(F)(F)F)ccn4)cc3)nc([C@@H]3CCCN(C(=O)C4(C)COC4)C3)n12 [Example 308, (R)-4-(8-amino-5-ethyl-3-(1-(3-methyloxetane-3-carbonyl)piperidin-3-yl)imidazo[1,5-a]pyrazin-1-yl)-N-(4-(trifluoromethyl)pyridin-2-yl)benzamide]
> 8.00 | CC1(C(=O)N2CCC[C@@H](c3nc(-c4ccc(C(=O)Nc5cc(C(F)(F)F)ccn5)cc4)c4c(N)ncc(/C=C/c5ccccc5)n34)C2)COC1 [Example 309, (R,E)-4-(8-amino-3-(1-(3-methyloxetane-3-carbonyl)piperidin-3-yl)-5-styrylimidazo[1,5-a]pyrazin-1-yl)-N-(4-(trifluoromethyl)pyridin-2-yl)benzamide]
> 8.00 | COCCC(=O)N1CCC[C@@H](c2nc(-c3ccc(C(=O)Nc4cc(C(F)(F)F)ccn4)cc3)c3c(N)ncc(/C=C/c4ccccc4)n23)C1 [Example 310, (R,E)-4-(8-amino-3-(1-(3-methoxypropanoyl)piperidin-3-yl)-5-styrylimidazo[1,5-a]pyrazin-1-yl)-N-(4-(trifluoromethyl)pyridin-2-yl)benzamide]
